# Biological target: T1, tissue factor:factor VIIa complex (tissue factor on human bladder carcinoma J-82 cells) (Homo sapiens, UniProt P08709)
# T1 construct: endogenous in cells; host or cells: J-82 (ATCC HTB-1) human bladder carcinoma cells: source of the tissue factor only
# Test: Factor X activation chromogenic substrate assay (J-82 cells as source of tissue factor, Spectrozyme Xa)
# Type: biochemical
# Conditions: PPACK 1 μM; positive control; 30 min at room temperature, OD-405; read-out: Percent Inhibition of F.X Activation
# Source text: The second screening was used to evaluate the ability of isolated antibodies to inhibit tissue factor catalyzed factor VII activity as reflected by the conversion of factor X to factor Xa. The human bladder carcinoma cell line J-82 (ATCC HTB-1) expresses cell surface-associated tissue factor and is used as the source of tissue factor and phospholipids. A chromogenic substrate for factor Xa is used, which develops color proportional to the amount of factor VIIa activity. Conversely, color is not developed if factor VII activity is blocked. The assay is performed as follows. J-82 cells are suspended in tris-buffered saline at a concentration of 1×10^5 cells per mL. Fifty microliters of cell suspension is added to individual wells of a 96-well polystyrene microliter plate. Fifty microliters of hybridoma culture supernatant diluted at least 1:10 is added to appropriate wells followed by 25 μL of 20 mM CaCl2. Negative control is irrelevant hybridoma culture supernatant (such as anti-tPA supernatant) and positive control is 1 μM PPACK (d-phenylalanine-proline-arginine-chloromethylkefone). Twenty-five microliters of 90 nM factor X and 50 λL of substrate Spectrozyme Xa are added to each well. Following thirty minute incubation at room temperature, OD-405 is determined. […]
# T1 sequence (P08709 213-466 limits assumed): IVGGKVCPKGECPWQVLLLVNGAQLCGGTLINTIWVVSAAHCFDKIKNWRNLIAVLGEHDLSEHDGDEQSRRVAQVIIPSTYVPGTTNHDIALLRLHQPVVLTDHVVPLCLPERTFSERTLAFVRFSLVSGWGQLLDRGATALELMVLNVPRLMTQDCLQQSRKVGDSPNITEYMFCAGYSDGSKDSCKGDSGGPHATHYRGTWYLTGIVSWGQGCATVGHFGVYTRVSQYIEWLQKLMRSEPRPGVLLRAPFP
# T1 sequence (P08709 61-212 limits assumed): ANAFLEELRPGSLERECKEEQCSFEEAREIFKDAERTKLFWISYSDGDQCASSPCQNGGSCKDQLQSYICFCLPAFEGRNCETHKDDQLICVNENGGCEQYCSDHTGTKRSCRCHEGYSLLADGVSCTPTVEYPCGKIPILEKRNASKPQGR
# T1 sequence (P13726 33-295 partner): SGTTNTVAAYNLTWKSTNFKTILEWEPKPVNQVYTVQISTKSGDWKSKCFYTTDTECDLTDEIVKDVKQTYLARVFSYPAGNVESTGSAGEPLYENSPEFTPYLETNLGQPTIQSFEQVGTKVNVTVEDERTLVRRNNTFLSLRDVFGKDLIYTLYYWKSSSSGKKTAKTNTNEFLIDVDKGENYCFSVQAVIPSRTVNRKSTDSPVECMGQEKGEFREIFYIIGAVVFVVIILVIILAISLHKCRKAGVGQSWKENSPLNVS
smiles,measurement,value
"N=C(N)NCCC[C@H](NC(=O)[C@@H]1CCCN1C(=O)[C@H](N)Cc1ccccc1)C(=O)CCl [PPACK, d-phenylalanine-proline-arginine-chloromethylkefone]",inhibition at 1 µM,100%

# From patent US5506134A, “Hypridoma and monoclonal antibody which inhibits blood coagulation tissue factor/factor VIIa complex” (Corvas International, Inc., priority 1991, dated 1996)
